Measurements as given in ChEMBL document CHEMBL4393710, “Discovery of Dioxino[2,3-f]quinazoline derivative VEGFR-2 inhibitors exerting significant antipro-liferative activity in HUVECs and mice” (Eur J Med Chem, 2019).

What was measured:
HEK293 = assay: Antiproliferative activity against HEK293 cells incubated for 72 hrs by CCK8 assay; settings: Homo sapiens, HEK293, 72 h
HUVEC = assay: Inhibition of VEGF-induced cell proliferation of HUVEC incubated for 72 hrs by CCK8 assay; settings: Homo sapiens
L02 = assay: Antiproliferative activity against human LO2 cells incubated for 72 hrs by CCK8 assay; settings: L02, 72 h
[1] = target: Vascular endothelial growth factor receptor 2 (Homo sapiens, UniProt P35968); assay: Inhibition of human N-terminal GST-tagged VEGFR2 cytoplasmic domain (790 to 1356 residues) expressed in baculovirus expression system using Ulight-JAK-1(Tyr1023) peptide as substrate preincubated for 30 mins followed by substrate addition and measured after 60 mins by spectrometric method
[2] = Toxicity in nude mouse xenografted with human SMMC7721 cells assessed as mortality at 60 mg/kg, po administered daily for 6 days; assay type: organism-based; settings: in vivo, 144 h
[3] = Toxicity in nude mouse xenografted with human SMMC7721 cells assessed as change in body weight at 60 mg/kg, po administered daily for 6 days and measured every 3 days; assay type: organism-based; settings: in vivo
SMMC-7721 [4] = assay: Antiproliferative activity against human SMMC7721 cells incubated for 72 hrs by CCK8 assay; assay type: functional, cell-based; settings: SMMC-7721, 72 h
SMMC-7721 [5] = assay: Antitumor activity against human SMMC7721 cells xenografted in nude mouse assessed as tumor volume at 60 mg/kg, po administered daily for 6 days and measured on day 9 (reference value: 3005.8 +/- 225.3 mm3); assay type: functional
SMMC-7721 [6] = assay: Antitumor activity against human SMMC7721 cells xenografted in nude mouse assessed as tumor volume at 60 mg/kg, po administered daily for 6 days and measured on day 6 (reference value: 1990.2 +/- 179.2 mm3); assay type: functional
[7] = Toxicity in nude mouse xenografted with human SMMC7721 cells assessed as side effect at 60 mg/kg, po administered daily for 6 days; assay type: organism-based; settings: in vivo, 144 h
SMMC-7721 [8] = assay: Antitumor activity against human SMMC7721 cells xenografted in nude mouse assessed as tumor growth inhibition at 60 mg/kg, po administered daily for 6 days and measured on day 9 relative to control; assay type: functional; settings: SMMC-7721, po, read-out: TGI
SMMC-7721 [9] = assay: Antitumor activity against human SMMC7721 cells xenografted in nude mouse assessed as tumor growth inhibition at 60 mg/kg, po administered daily for 6 days and measured on day 6 relative to control; assay type: functional; settings: SMMC-7721, po, 144 h, read-out: TGI

Chain of Vascular endothelial growth factor receptor 2 (P35968 whole entry, the tested form may be a part): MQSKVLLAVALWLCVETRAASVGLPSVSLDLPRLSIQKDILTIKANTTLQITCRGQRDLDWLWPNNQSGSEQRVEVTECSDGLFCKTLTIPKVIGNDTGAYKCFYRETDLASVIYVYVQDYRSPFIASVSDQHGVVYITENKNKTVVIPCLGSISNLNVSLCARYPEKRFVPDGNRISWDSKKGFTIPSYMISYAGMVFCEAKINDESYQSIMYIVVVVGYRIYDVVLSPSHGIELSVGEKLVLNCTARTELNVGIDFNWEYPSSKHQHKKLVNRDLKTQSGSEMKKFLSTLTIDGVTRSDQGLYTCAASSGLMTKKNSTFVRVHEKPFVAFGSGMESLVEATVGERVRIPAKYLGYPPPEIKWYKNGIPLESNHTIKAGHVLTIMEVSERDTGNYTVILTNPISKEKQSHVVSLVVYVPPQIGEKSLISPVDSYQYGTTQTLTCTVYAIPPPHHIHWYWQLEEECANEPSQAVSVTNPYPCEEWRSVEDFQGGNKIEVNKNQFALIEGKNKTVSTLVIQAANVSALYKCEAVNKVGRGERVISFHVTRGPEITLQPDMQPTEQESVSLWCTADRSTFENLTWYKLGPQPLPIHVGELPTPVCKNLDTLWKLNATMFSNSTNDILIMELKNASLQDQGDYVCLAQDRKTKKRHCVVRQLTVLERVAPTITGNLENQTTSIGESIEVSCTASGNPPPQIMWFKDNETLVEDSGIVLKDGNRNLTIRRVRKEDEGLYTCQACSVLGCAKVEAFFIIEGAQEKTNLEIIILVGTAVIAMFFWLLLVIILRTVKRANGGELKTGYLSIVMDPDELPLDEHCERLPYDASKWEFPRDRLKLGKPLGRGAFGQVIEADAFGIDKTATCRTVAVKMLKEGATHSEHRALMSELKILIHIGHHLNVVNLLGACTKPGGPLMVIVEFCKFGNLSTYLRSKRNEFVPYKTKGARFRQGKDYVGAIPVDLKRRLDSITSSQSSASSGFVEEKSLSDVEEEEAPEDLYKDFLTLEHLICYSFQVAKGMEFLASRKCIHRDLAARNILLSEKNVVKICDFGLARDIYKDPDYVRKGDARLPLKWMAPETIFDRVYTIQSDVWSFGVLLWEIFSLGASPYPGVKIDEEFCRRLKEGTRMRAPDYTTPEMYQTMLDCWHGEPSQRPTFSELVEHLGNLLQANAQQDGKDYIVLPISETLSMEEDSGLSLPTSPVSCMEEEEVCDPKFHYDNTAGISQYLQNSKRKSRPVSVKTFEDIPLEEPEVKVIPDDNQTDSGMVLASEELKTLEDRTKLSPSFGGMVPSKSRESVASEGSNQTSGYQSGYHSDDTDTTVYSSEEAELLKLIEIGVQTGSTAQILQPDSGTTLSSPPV

Row | Compound | IC50 (HEK293) [nM] | IC50 (HUVEC) [nM] | IC50 (L02) [nM] | IC50 [1] [nM] | further results
1 | CC(C)Oc1cc2ncnc(Oc3ccc(NC(=O)Nc4cc(C(F)(F)F)ccc4F)cc3)c2c2c1OCCO2 | 3560 | 4.2 | 5180 |  | 
2 | O=C(Nc1ccc(Oc2ncnc3cc(OCCCN4CCOCC4)c4c(c23)OCCO4)cc1)Nc1cc(C(F)(F)F)ccc1F | 994 | 2.3 | 1010 | 1.5 | 
3 | O=C(Nc1ccc(Oc2ncnc3cc(OCCCN4CCOCC4)c4c(c23)OCCO4)cc1F)Nc1cc(C(F)(F)F)ccc1F | 1160 | 4.7 | 1510 |  | 
4 | COc1cc2ncnc(Oc3ccc(NC(=O)Nc4cc(C(F)(F)F)ccc4F)cc3)c2c2c1OCCO2 | 2880 | 1.7 | 2190 | 1.5 | 
5 | COc1cc2ncnc(Oc3ccc(NC(=O)Nc4ccc(Cl)c(C(F)(F)F)c4)cc3)c2c2c1OCCO2 | 7540 | 1.2 | 3860 | 2.4 | Activity [2]: Non-Toxic; Activity [3]: Toxic; IC50 (SMMC-7721 [4]): 376 nM; Activity (SMMC-7721 [5]): 63.3 mm3; Activity (SMMC-7721 [6]): 14 mm3; Activity [7]: Non-Toxic; inhibition in vivo at 60 mg/kg (SMMC-7721 [8]): 118%; inhibition in vivo at 60 mg/kg (SMMC-7721 [9]): 133%
6 | O=C(Nc1ccc(Oc2ncnc3cc(OCCCN4CCOCC4)c4c(c23)OCCO4)c(F)c1)Nc1cc(C(F)(F)F)ccc1F | 700 | 1.5 | 801 | 3.4 | 
7 | COCCOc1cc2ncnc(Oc3ccc(NC(=O)Nc4cc(C(F)(F)F)ccc4F)cc3)c2c2c1OCCO2 | 894 | 1.1 | 1160 | 1.7 | 
8 | COc1cccc(NC(=O)Nc2ccc(Oc3ncnc4cc(OC)c5c(c34)OCCO5)cc2)c1 | > 25000 | 3 | 34300 |  | 
9 | O=C(Nc1cc(C(F)(F)F)ccc1F)Nc1ccc(Oc2ncnc3cc(OCCCN4CCOCC4)c4c(c23)OCCO4)cc1Cl | 5180 | 4 | 5980 |  | 
10 | COc1cc2nccc(Oc3ccc(NC(=O)NC4CC4)c(Cl)c3)c2cc1C(N)=O [LENVATINIB] |  | 3 |  |  | 
